Test results published in ChEMBL document CHEMBL6109129, “Discovery of Conformationally Constrained Dihydro Benzo-Indole Derivatives as Metallo-β-Lactamase Inhibitors to Tackle Multidrug-Resistant Bacterial Infections” (J Med Chem, 2025).
≈ marks a conversion by molar mass, not a printed value. Calls of active or inactive are those of the source. The rule behind the calls is not given here.

How the values were obtained:
[1] = system: Klebsiella pneumoniae; experiment: Synergistic antibacterial activity against carbapenem-resistant Klebsiella pneumoniae BAA-2473 assessed as reduction in microbial growth at 16 ug/ml measured after 16 to 18 hrs in presence of meropenem by microbial dilution method; type: functional; settings: dose 16 µg/ml, time 16-18 hrs
[2] = Octanol/aqueous buffer distribution coefficient, log D of the compound at pH 7.4 incubated for 4 hrs under shaking condition by HPLC analysis; type: physicochemical
[3] = system: Klebsiella pneumoniae; experiment: Synergistic antibacterial activity against carbapenem-resistant Klebsiella pneumoniae 571278 assessed as reduction in microbial growth at 16 ug/ml measured after 16 to 18 hrs in presence of meropenem by microbial dilution method; type: functional; settings: dose 16 µg/ml, time 16-18 hrs
[4] = system: Enterobacter cloacae; experiment: Synergistic antibacterial activity against carbapenem-resistant Enterobacter cloacae BAA-2468 assessed as reduction in microbial growth at 8 ug/ml measured after 16 to 18 hrs in presence of meropenem by microbial dilution method; type: functional; settings: dose 8 µg/ml, time 16-18 hrs
[5] = system: Escherichia coli; experiment: Synergistic antibacterial activity against carbapenem-resistant Escherichia coli 567975 assessed as reduction in microbial growth at 4 ug/ml measured after 16 to 18 hrs in presence of meropenem by microbial dilution method; type: functional; settings: dose 4 µg/ml, time 16-18 hrs
[6] = Metabolic stability in mouse liver microsomes assessed as intrinsic clearance at 1 uM preincubated for 5 mins followed by NADPH addition and measured up to 60 mins by LC-MS/MS analysis; type: ADME, Microsome; settings: time < 65 min, read-out: CLH
[7] = Cytotoxicity in HEK293 cells assessed as inhibition of cell growth measured after 24 hrs by MTT assay; type: toxicity, cell-based; settings: human
[8] = system: Klebsiella pneumoniae; experiment: Synergistic antibacterial activity against carbapenem-resistant Klebsiella pneumoniae 565345 assessed as reduction in microbial growth at 16 ug/ml measured after 16 to 18 hrs in presence of meropenem by microbial dilution method; type: functional; settings: dose 16 µg/ml, time 16-18 hrs
[9] = system: Escherichia coli; experiment: Synergistic antibacterial activity against carbapenem-resistant Escherichia coli 541588 assessed as reduction in microbial growth at 16 ug/ml measured after 16 to 18 hrs in presence of imipenem by microbial dilution method; type: functional; settings: dose 16 µg/ml, time 16-18 hrs
[10] = system: Klebsiella pneumoniae; experiment: Synergistic antibacterial activity against carbapenem-resistant Klebsiella pneumoniae BAA-2473 assessed as reduction in microbial growth at 8 ug/ml measured after 16 to 18 hrs in presence of meropenem by microbial dilution method; type: functional; settings: dose 8 µg/ml, time 16-18 hrs
[11] = system: Escherichia coli; experiment: Synergistic antibacterial activity against carbapenem-resistant Escherichia coli BAA-2471 assessed as reduction in microbial growth at 8 ug/ml measured after 16 to 18 hrs in presence of meropenem by microbial dilution method; type: functional; settings: dose 8 µg/ml, time 16-18 hrs
[12] = system: Klebsiella pneumoniae; experiment: Synergistic antibacterial activity against carbapenem-resistant Klebsiella pneumoniae 565345 assessed as reduction in microbial growth at 4 ug/ml measured after 16 to 18 hrs in presence of meropenem by microbial dilution method; type: functional; settings: dose 4 µg/ml, time 16-18 hrs
[13] = system: Escherichia coli; experiment: Synergistic antibacterial activity against carbapenem-resistant Escherichia coli BAA-2471 assessed as reduction in microbial growth at 0.5 ug/ml measured after 16 to 18 hrs in presence of meropenem by microbial dilution method; type: functional; settings: dose 0.5 µg/ml, time 16-18 hrs
[14] = Kinetic solubility of the compound in PBS buffer at pH 7.4 measured after 24 hrs by HPLC analysis; type: physicochemical; settings: read-out: Kinetic_solubility
[15] = system: Klebsiella pneumoniae; experiment: Synergistic antibacterial activity against carbapenem-resistant Klebsiella pneumoniae 571278 assessed as reduction in microbial growth at 16 ug/ml measured after 16 to 18 hrs in presence of imipenem by microbial dilution method; type: functional; settings: dose 16 µg/ml, time 16-18 hrs
[16] = system: Klebsiella pneumoniae; experiment: Anti-infective activity against carbapenem-resistant Klebsiella pneumoniae ATCC BAA 2146 expressing NDM-1 infected in neutropenic female BALB/c mouse deep thigh infection model assessed as reduction in bacterial count at 20 mg/kg,sc pre-infected with bacteria for 2 hrs followed by compound addition and measured after 26 hrs in presence of imipenem; type: functional
[17] = target: Metallo-beta-lactamase type 2 (Bacteria) (UniProt C7C422); experiment: Induction of thermal stabilization of NDM-1 (unknown origin) assessed as melting temperature at 6.25 uM by differential scanning fluorimetry analysis
Chain of Metallo-beta-lactamase type 2 (Bacteria) (C7C422 whole entry): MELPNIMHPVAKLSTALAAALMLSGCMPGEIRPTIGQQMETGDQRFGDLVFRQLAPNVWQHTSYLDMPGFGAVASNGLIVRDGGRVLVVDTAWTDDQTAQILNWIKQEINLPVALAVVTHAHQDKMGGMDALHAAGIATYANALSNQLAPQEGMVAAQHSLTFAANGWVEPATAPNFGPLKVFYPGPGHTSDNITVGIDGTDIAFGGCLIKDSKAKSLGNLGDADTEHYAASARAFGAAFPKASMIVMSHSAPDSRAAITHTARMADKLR

[18] = system: Klebsiella pneumoniae; experiment: Synergistic antibacterial activity against carbapenem-resistant Klebsiella pneumoniae BAA-2473 assessed as reduction in microbial growth at 0.5 ug/ml measured after 16 to 18 hrs in presence of imipenem by microbial dilution method; type: functional; settings: dose 0.5 µg/ml, time 16-18 hrs
[19] = Plasma protein binding in mouse assessed as unbound fraction at 10 uM measured after 5 hrs by LC-MS/MS analysis; type: ADME, cell-free
[20] = system: Escherichia coli; experiment: Synergistic antibacterial activity against carbapenem-resistant Escherichia coli 565988 assessed as reduction in microbial growth at 16 ug/ml measured after 16 to 18 hrs in presence of imipenem by microbial dilution method; type: functional; settings: dose 16 µg/ml, time 16-18 hrs
[21] = system: Klebsiella pneumoniae; experiment: Synergistic antibacterial activity against carbapenem-resistant Klebsiella pneumoniae 552439 assessed as reduction in microbial growth at 4 ug/ml measured after 16 to 18 hrs in presence of meropenem by microbial dilution method; type: functional; settings: dose 4 µg/ml, time 16-18 hrs
[22] = system: Escherichia coli; experiment: Synergistic antibacterial activity against carbapenem-resistant Escherichia coli 567975 assessed as reduction in microbial growth at 16 ug/ml measured after 16 to 18 hrs in presence of meropenem by microbial dilution method; type: functional; settings: dose 16 µg/ml, time 16-18 hrs
[23] = system: Klebsiella pneumoniae; experiment: Synergistic antibacterial activity against carbapenem-resistant Klebsiella pneumoniae BAA-2473 assessed as reduction in microbial growth at 8 ug/ml measured after 16 to 18 hrs in presence of imipenem by microbial dilution method; type: functional; settings: dose 8 µg/ml, time 16-18 hrs
[24] = target: Metallo-beta-lactamase type 2 (Bacteria) (UniProt C7C422); experiment: Induction of thermal stabilization of NDM-1 (unknown origin) assessed as melting temperature at 50 uM by differential scanning fluorimetry analysis
[25] = system: Enterobacter cloacae; experiment: Synergistic antibacterial activity against carbapenem-resistant Enterobacter cloacae BAA-2468 assessed as reduction in microbial growth at 0.5 ug/ml measured after 16 to 18 hrs in presence of imipenem by microbial dilution method; type: functional; settings: dose 0.5 µg/ml, time 16-18 hrs
[26] = target: Metallo-beta-lactamase type 2 (Bacteria) (UniProt C7C422); experiment: Induction of thermal stabilization of NDM-1 (unknown origin) assessed as melting temperature at 25 uM by differential scanning fluorimetry analysis
[27] = system: Klebsiella pneumoniae; experiment: Synergistic antibacterial activity against Klebsiella pneumoniae ATCC BAA 2146 expressing NDM-1 measured after 16 to 18 hrs in presence of meropenem by microbial dilution method; type: functional, organism-based; settings: time 16-18 hrs
[28] = system: Klebsiella pneumoniae subsp. pneumoniae; experiment: Synergistic antibacterial activity against carbapenem-resistant Klebsiella pneumoniae subsp. pneumoniae BAA-2472 assessed as reduction in microbial growth at 0.5 ug/ml measured after 16 to 18 hrs in presence of meropenem by microbial dilution method; type: functional; settings: dose 0.5 µg/ml, time 16-18 hrs
[29] = Inhibition of VIM-1 (unknown origin) using FC5 as substrate preincubated for 10 mins followed by substrate addition and measured immediately by fluorescence based analysis; parameters: species or system Bacteria
[30] = system: Klebsiella pneumoniae; experiment: Synergistic antibacterial activity against carbapenem-resistant Klebsiella pneumoniae 565345 assessed as reduction in microbial growth at 4 ug/ml measured after 16 to 18 hrs in presence of imipenem by microbial dilution method; type: functional; settings: dose 4 µg/ml, time 16-18 hrs
[31] = system: Escherichia coli; experiment: Synergistic antibacterial activity against carbapenem-resistant Escherichia coli BAA-2469 assessed as reduction in microbial growth at 16 ug/ml measured after 16 to 18 hrs in presence of imipenem by microbial dilution method; type: functional; settings: dose 16 µg/ml, time 16-18 hrs
[32] = system: Klebsiella pneumoniae subsp. pneumoniae; experiment: Synergistic antibacterial activity against carbapenem-resistant Klebsiella pneumoniae BAA-2472 assessed as reduction in microbial growth at 16 ug/ml measured after 16 to 18 hrs in presence of imipenem by microbial dilution method; type: functional; settings: dose 16 µg/ml, time 16-18 hrs

## COc1ccc(Cl)cc1-c1c(C(=O)O)[nH]c2c1CCc1ccccc1-2
[1]
  MIC: 8 µg/mL
[2]
  logD at 4 h: 2.58
[3]
  MIC: 16 µg/mL
[4]
  MIC: 8 µg/mL
[5]
  MIC: 1 µg/mL
[6]
  microsomal CLint at 1 µM: 12.9 µL/min/mg
[7]
  IC50 at 24 h: > 200 µM
[8]
  MIC: 1 µg/mL
[9]
  MIC: 1 µg/mL
[10]
  MIC: 16 µg/mL
[11]
  MIC: 16 µg/mL
[12]
  MIC: 4 µg/mL
[13]
  MIC: 64 µg/mL
[14]
  solubility kinetic at 24 h: 19.7 µg/mL (≈ 55.7 µM)
[15]
  MIC: 4 µg/mL
[16]
  Activity: ~2.2 log10CFU/ml
[17]
  ΔTm: 17 °C
[18]
  MIC: 64 µg/mL
[19]
  fraction unbound at 5 h, 10 µM: 0.952
[20]
  MIC: < 0.5 µg/mL
[21]
  MIC: 16 µg/mL
[22]
  MIC: < 0.5 µg/mL
[23]
  MIC: 16 µg/mL
[24]
  Tm: 20 °C
[25]
  MIC: > 64 µg/mL
[26]
  Tm: 19 °C
[27]
  Activity: Active
[28]
  MIC: > 64 µg/mL
[29]
  IC50: 0.021 µM
[30]
  MIC: 32 µg/mL
[31]
  MIC: 4 µg/mL
[32]
  MIC: 8 µg/mL
